Results reported in patent US9808003B2, “Herbicidally active 2-(substituted-phenyl)-cyclopentane-1,3-dione compounds and derivatives thereof” (Syngenta Limited, priority 2013, dated 2017).

Columns and labels:
Experiment in all cases: Test 1A glasshouse assay, post-emergence herbicidal activity
Format in all cases: in vivo
Avena fatua (AVEFA) = conditions: Avena fatua, 312 h, application rate 250 g/ha, 13 days after application, visual (100%=total damage; 0%=no damage), read-out: Post-emergence Herbicidal Activity (% Phytotoxicity) AVEFA
Method in brief: (§1)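 Herbicidal effect is scored by eye as % phytotoxicity (0–100%) 13 days after treatment of 8-day-old glasshouse-grown plants. The spray solution contains the technical active ingredient in acetone/water with 0.5% Tween 20.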

[1] = tested on: Echinochloa crus-galli (ECHCG); conditions: Echinochloa crus-galli, 312 h, application rate 250 g/ha, 13 days after application, visual (100%=total damage; 0%=no damage), read-out: Post-emergence Herbicidal Activity (% Phytotoxicity) ECHCG
Method in brief: as §1

[2] = tested on: Alopecurus myosuroides (ALOMY); conditions: Alopecurus myosuroides, 312 h, application rate 250 g/ha, 13 days after application, visual (100%=total damage; 0%=no damage), read-out: Post-emergence Herbicidal Activity (% Phytotoxicity) ALOMY
Method in brief: as §1

Lolium perenne (LOLPE) = conditions: Lolium perenne, 312 h, application rate 250 g/ha, 13 days after application, visual (100%=total damage; 0%=no damage), read-out: Post-emergence Herbicidal Activity (% Phytotoxicity) LOLPE
Method in brief: as §1

Compound | pest or weed control at 250 g/ha (Avena fatua (AVEFA)) | pest or weed control at 250 g/ha [1] | pest or weed control at 250 g/ha [2] | pest or weed control at 250 g/ha (Lolium perenne (LOLPE))
CCCCC(=O)OC1=C(c2c(C)cc(C)cc2C)C(=O)C(CCNC(=O)c2ccc(Br)cn2)C1 (centres unmarked) [Compound P12] | 100% | 100% | 100% | 100%
Cc1cc(C)c(C2=C(OC(=O)C(C)(C)C)CC(CCNC(=O)c3ccc(Br)cn3)C2=O)c(C)c1 (centres unmarked) [Compound P13] | 100% | 100% | 100% | 100%
Cc1cc(-n2cc(Cl)cn2)cc(C)c1C1=C(OC(=O)c2ccc(F)cc2)CC(CCNC(=O)c2ccccn2)C1=O (centres unmarked) [Compound P14] | 100% | 100% | 100% | 100%
CCCCS(=O)(=O)OC1=C(c2c(C)cc(-n3cc(Cl)cn3)cc2C)C(=O)C(CCNC(=O)c2ccccn2)C1 (centres unmarked) [Compound P15] | 100% | 100% | 100% | 100%
Cc1cc(-n2cc(Cl)cn2)cc(C)c1C1=C(OS(=O)(=O)c2ccc(F)cc2)CC(CCNC(=O)c2ccccn2)C1=O (centres unmarked) [Compound P16] | 90% | 100% | 100% | 100%
Cc1cc(C)c(C2=C(OC(=O)c3ccc(F)cc3)CC(CCNC(=O)c3ccc(Br)cn3)C2=O)c(C)c1 (centres unmarked) [Compound P17] | 100% | 100% | 100% | 100%
CCCCS(=O)(=O)OC1=C(c2c(C)cc(C)cc2C)C(=O)C(CCNC(=O)c2ccc(Br)cn2)C1 (centres unmarked) [Compound P18] | 90% | 100% | 100% | 100%
Cc1cc(C)c(C2=C(OS(=O)(=O)c3ccc(F)cc3)CC(CCNC(=O)c3ccc(Br)cn3)C2=O)c(C)c1 (centres unmarked) [Compound P19] | 100% | 100% | 100% | 100%
CCOCOC1=C(c2c(C)cc(C)cc2C)C(=O)C(CCNC(=O)c2ccc(Br)cn2)C1 (centres unmarked) [Compound P20] | 100% | 100% | 100% | 100%
Cc1cc(-n2cc(Cl)cn2)cc(C)c1C1=C(OC(=O)N2CCCC2)CC(CCNC(=O)c2ccccn2)C1=O (centres unmarked) [Compound P21] | 80% | 100% | 80% | 70%
Cc1cc(C)c(C2=C(OC(=O)N3CCCC3)CC(CCNC(=O)c3ccc(Br)cn3)C2=O)c(C)c1 (centres unmarked) [Compound P22] | 100% | 100% | 90% | 100%
